Measured values published in patent US20210275514A1, “COMPOUNDS FOR USE IN TREATING KIDNEY DISORDERS” (Hoffmann-La Roche Inc., priority 2018, published 2021).
“Also recorded” adds a separate entry of the source.

What was measured:
Assay type in all cases: in vivo
129 Col4a3 KO mice [1] = assay: Alport mouse model, late study of survival, treatment from 6 weeks of age; conditions: 100 mg/Kg/day oral gavage started in 6 weeks old mice
Procedure: (§1) 129 Col4a3^tm1/Dec/J mice were purchased from Jackson Labs and bred to generate Col4a3 KO mice. Mice were genotyped and selected using the primers: F ([…]), R ([…]) and Rm ([…]) in a PCR reaction (94 C for 5 min, followed by 30 cycles of 30 sec at 95 C, 15 sec at 60 C and 30 sec 72 C, and 1 min at 72 C). 129 Col4A3-KO mice were divided into two groups of 5 mice (males and females) each. At the age of 4 weeks, mice started receiving either vehicle or Cpd G (100 mg/Kg) by oral gavage once daily for 4 weeks. Body weight measurements and spot urine collection was performed once a week. Animals were sacrificed at the end of the treatment at the age of 8 weeks. A late study was also performed to evaluate if treatment of Col4A3-KO mice at time of established disease would prolong mice survival. In this study, mice were treated with Cpd G (100 mg/Kg/day) by daily oral gavage starting at 6 weeks of age and survival was assessed.

129 Col4a3 KO mice [2] = assay: Alport mouse model, treatment from 4 weeks of age
Procedure: as §1
(§2) Spot urine samples were collected for all mice at baseline and time of sacrifice. Urinary albumin and creatinine were determined using an albumin ELISA kit (Bethyl laboratories) and a colorimetric assay for creatinine determination (Stanbio). Albuminuria was calculated and expressed as μg of albumin divided by mg of creatinine. For diabetic mouse model, weight and glycaemia were measured on a bi-weekly basis.
Lipid droplet staining Filtered Oil-Red O-Isopropanol solution (Electron Microscopy Science, PA) was diluted with water (6:4). 4 μm kidney sections were incubated with 100 μl freshly prepared Oil-Red O solution (ORO) for 15 minutes and counterstained with Hematoxylin Harris Hg Free (VWR, PA) to detect lipid deposition. Glomeruli staining was evaluated using a light microscope (Olympus BX 41, Tokyo, Japan).
(§3) Renal lipids species assays. Kidney cortex sections were snap frozen and utilized for lipid extraction and cholesterol content determination. The tissue was homogenized in 2 mM potassium phosphate buffer in a glass douncer on ice. Lipids in 100 μl homogenate (˜5-10 mg tissue) were extracted with 1 ml hexane:isopropanol (3:2) for two sequential 30-minute extractions. The solvent containing lipids was then dried in Nitrogen atmosphere. Lipids were then reconstituted using isopropanol: NP-40 (9:1) and cholesterol content was quantified using the Amplex red cholesterol assay kit (Invitrogen) according to the manufacturers protocol. Triglycerides in lipid extracts were assayed with a colorimetric kit according to manufacturer's instructions (Cayman). Total cholesterol and cholesterol esters were assayed using an enzymatic fluorometric method. For total cholesterol renal lipid extracts were diluted in assay buffer (100 mM potassium phosphate, 50 mM NaCl, 5 mM cholic acid, 0.1% […], pH 7.4) and incubated with same buffer supplemented with a final concentration of 1 U/ml cholesterol oxidase, 1 U/ml cholesterol esterase, 1 U/ml horseradish peroxidase, and 75 μM Amplex Red. The reactions were incubated at 37° C. for 30 min in a black opaque 96 well plate (Greiner) and fluorescence was measured in a microplate reader (Spectramax i3X, Molecular Devices) using 530 nm excitation and 580 emission.
Cholesterol esters were assayed using a direct method described by Mizoguchi et al (Mizoguchi, 2004). Briefly 150 μl of FC decomposition reagent (45 U/ml bovine catalase and 1 U/ml cholesterol oxidase, in assay buffer described above) was added to 25 μl of sample containing up to 1 mM total cholesterol. Free cholesterol was allowed to decompose overnight at 37° C. and then 75 μl of 4× cholesterol ester detection reagent (1 U/ml cholesterol oxidase, 4 U/ml cholesterol esterase, 24 U/ml horseradish peroxidase, 300 μM Amplex Red) was added. Reaction was incubated at 37° C. for 30 min and fluorescence was measured as described above for total cholesterol. 1 mM of cholesterol and 5 μM of cholesterol oleate standards were included as internal controls to validate assay sensibility and specificity. […]

db/db mice = assay: DKD mouse model; conditions: 30 mg/Kg once daily; for albuminuria (albumin to creatinine ratio): vs db/db vehicle
Procedure: B6.BKS^db/db and B6.BKS^db/+ mice were purchased from the Jackson laboratory. At the age of 14 weeks, mice started receiving vehicle or the ABCA1 inducer Cpd A (30 mg/Kg) by oral gavage once daily for 4 weeks. Body weight measurements and urine collection was performed every week. Mice were sacrificed at 18 weeks old, blood was collected and tissues were processed and analyzed as described below.
as §2
Kidney cortex sections were embedded in OCT for further analysis of immunofluorescent staining and lipid droplet. Specifically, for determination of podocyte number per glomerular cross-section was determined using 4 μm-thick tissue sections that were cut and stained with WT1 antibody (1:200, Santa Cruz) and prolong GOLD DAPI mounting media. Images were acquired with confocal microscopy using a Leica SP5 inverted microscope with the 40× wet objective. 20 glomeruli per mouse were quantified.
Electron microscopy. For transmission electron microscopy kidney cortex sections were placed in 4% paraformaldehyde, 1% gluteraldehyde in 0.1 M phosphate buffer (pH 7.4). Foot processes were quantified per 1 μm of the glomerular basement membrane.
as §3
Cholesterol esters were assayed using a direct method described by Mizoguchi et al (Mizoguchi, 2004). Briefly 150 μl of FC decomposition reagent (45 U/ml bovine catalase and 1 U/ml cholesterol oxidase, in assay buffer described above) was added to 25 μl of sample containing up to 1 mM total cholesterol. Free cholesterol was allowed to decompose overnight at 37° C. and then 75 μl of 4× cholesterol ester detection reagent (1 U/ml cholesterol oxidase, 4 U/ml cholesterol esterase, 24 U/ml horseradish peroxidase, 300 μM Amplex Red) was added. Reaction was incubated at 37° C. for 30 min and fluorescence was measured as described above for total cholesterol. 1 mM of cholesterol and 5 μM of cholesterol oleate standards were included as internal controls to validate assay sensibility and specificity.
Pathological evaluation. Kidney cortex sections were paraffin-embedded and cut at 4 μm thick for periodic acid-Schiff (PAS) and HE. […]

[3] = 100 mg/Kg once daily, 4 weeks from age 4 weeks, vs vehicle

Structure (SMILES)	increased life span (129 Col4a3 KO mice [1]) [%]	progression to ESRD (129 Col4a3 KO mice [2]; 100 mg/Kg once daily, 4 weeks from age 4 weeks)	Albuminuria (129 Col4a3 KO mice [2]; [3])	BUN (129 Col4a3 KO mice [2]; [3])	Body weight loss (129 Col4a3 KO mice [2]; [3])	mesangial expansion (PAS-stained kidney sections) (129 Col4a3 KO mice [2]; [3])	serum creatinine (129 Col4a3 KO mice [2]; [3])	lipid accumulation in kidney cortex sections (Oil-red O staining) (129 Col4a3 KO mice [2]; 8 week old mice, 28 days treatment)	cholesterol ester in kidneys (129 Col4a3 KO mice [2]; 8 week old mice, 28 days treatment, normalized to total protein)	Blood urea nitrogen (BUN) (db/db mice; 4 weeks)	cholesterol esters in kidney cortex (db/db mice; 4 weeks)	mesangial expansion (PAS stained sections) (db/db mice; 4 weeks)	podocyte foot process effacement (TEM) (db/db mice; 4 weeks)	podocyte number (WT1 positive cells) (db/db mice; 4 weeks)	albuminuria (albumin to creatinine ratio) (db/db mice; after four weeks of treatment (18 weeks))	albuminuria (albumin to creatinine ratio) (db/db mice; after two weeks of treatment (16 weeks))
O=C(N[C@@H]1CCCC[C@H]1O)c1cnc(OCC(F)(F)F)c(-c2ccc(Cl)c(Cl)c2)c1 [Cpd G, 5-(3,4-dichloro-phenyl)-N-((1R,2R)-2-hydroxy-cyclohexyl)-6-(2,2,2-trifluoro-ethoxy)-nicotinamide]	~15	delays progression to end stage renal disease; also recorded: delayed progression to ESRD	significantly less	significantly less	lost less weight	significantly less mesangial expansion	significantly less	reduced	reduces esterified cholesterol accumulation; also recorded: significantly reduced							
O=C(N[C@@H]1CCCC[C@H]1O)c1ccc(OCC(F)(F)F)c(-c2ccc(Cl)c(Cl)c2)n1 [Cpd A, 6-(3,4-Dichlorophenyl)-N-[(1R,2R)-2-hydroxycyclohexyl]-5-(2,2,2-trifluoroethoxy)pyridine-2-carboxamide]										significantly improved	significant reduction	improved	improved	improved	even further reduction	reduction in albuminuria
